biological target: Human Cot (Homo sapiens (Human), UniProt P41279); experiment: High Throughput Cot Biochemical Assay; settings: IC50 HTRF, Cot HTRF (TR-FRET KinEASE) biochemical assay, 400 μM ATP
Sequence (P41279 30-397): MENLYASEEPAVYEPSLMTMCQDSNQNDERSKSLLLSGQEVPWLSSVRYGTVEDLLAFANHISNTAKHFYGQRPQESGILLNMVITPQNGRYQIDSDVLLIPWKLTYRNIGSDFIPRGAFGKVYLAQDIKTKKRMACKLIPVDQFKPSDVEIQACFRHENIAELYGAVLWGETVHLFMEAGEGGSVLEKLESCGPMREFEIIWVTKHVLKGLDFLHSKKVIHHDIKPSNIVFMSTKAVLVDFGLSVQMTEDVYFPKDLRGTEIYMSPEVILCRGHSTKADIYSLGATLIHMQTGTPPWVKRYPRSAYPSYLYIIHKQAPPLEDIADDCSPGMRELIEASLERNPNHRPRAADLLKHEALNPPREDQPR

| IC50 | Structure (SMILES) |
| --- | --- |
| 0.003 µM | Cc1nc(F)ccc1[C@H](Nc1cc(Cl)c2ncc(C#N)c(NCC(C)(C)C)c2c1)c1nnn(C2(C)CC2)c1F [Example 947, (S)-8-chloro-6-(((5-fluoro-1-(1-methylcyclopropyl)-1H-1,2,3-triazol-4-yl)(6-fluoro-2-methyl-pyridin-3-yl)methyl)amino)-4-(neopentylamino)quinoline-3-carbonitrile] |

same assay, conditions: IC50 HTRF, Cot HTRF (TR-FRET) biochemical assay

| IC50 | Structure (SMILES) |
| --- | --- |
| 0.003 µM | CC(C)(C)CNc1c(C#N)cnc2c(C#N)cc(N[C@H](c3cn(C4(C(F)(F)F)CC4)nn3)c3cccc4ncsc34)cc12 [Example 66, (S)-6-((benzo[d]thiazol-7-yl(1-(1-(trifluoromethyl)cyclopropyl)-1H-1,2,3-triazol-4-yl)methyl)amino)-4-(neopentylamino)quinoline-3,8-dicarbonitrile] |
| 0.001 µM | CC(C)(C)CNc1c(C#N)cnc2c(Cl)cc(N[C@H](c3cn(C4CC4)nn3)c3csc4c3CCN(C3COC3)C4)cc12 [Example 80, (S)-8-chloro-6-(((1-cyclopropyl-1H-1,2,3-triazol-4-yl)(6-(oxetan-3-yl)-4,5,6,7-tetrahydrothieno[2,3-c]pyridin-3-yl)methyl)amino)-4-(neopentylamino)-quinoline-3-carbonitrile] |
| 0.002 µM | CC(C)(C)CNc1c(C#N)cnc2c(Cl)cc(N[C@H](c3cn(C4(C)CC4)nn3)c3cccc4ncsc34)cc12 [Example 434, (S)-6-((benzo[d]thiazol-7-yl(1-(1-methylcyclopropyl)-1H-1,2,3-triazol-4-yl)methyl)amino)-8-chloro-4-(neopentylamino)quinoline-3-carbonitrile] |
| 0.002 µM | [2H]C(Nc1cc(Cl)c2ncc(C#N)c(NCC(C)(C)C)c2c1)(c1cn(C2CC2)nn1)c1ccc(F)nc1C (stereo not shown) [Example 111, 8-chloro-6-(((1-cyclopropyl-1H-1,2,3-triazol-4-yl)(6-fluoro-2-methylpyridin-3-yl)methyl-d)amino)-4-(neopentylamino)quinoline-3-carbonitrile] |
| 0.01 µM | N#Cc1cnc2c(Cl)cc(NC(c3cccnc3)c3cn([C@@H]4CCNC4)nn3)cc2c1Nc1ccc(F)c(Cl)c1 (stereo partly drawn) [Example 401, 8-chloro-4-((3-chloro-4-fluoro-phenyl)amino)-6-((pyridin-3-yl(1-((R)-pyrrolidin-3-yl)-1H-1,2,3-triazol-4-yl)methyl)amino)quinoline-3-carbonitrile] |
| 0.232 µM | N#Cc1cnc2c(Cl)cc(NC(c3cccnc3)c3cn(C4CCN(C(=O)OCc5ccccc5)CC4)nn3)cc2c1Nc1ccc(F)c(Cl)c1 (stereo not shown) [Example 404, benzyl 4-(4-(((8-chloro-4-((3-chloro-4-fluorophenyl)amino)-3-cyanoquinolin-6-yl)amino)(pyridin-3-yl)methyl)-1H-1,2,3-triazol-1-yl)piperidine-1-carboxylate] |
| 0.005 µM | Cn1c(=O)ccc2c([C@H](Nc3cc(Cl)c4ncc(C#N)c(NCC(C)(C)C)c4c3)c3cn(C45CC(C4)C5)nn3)cccc21 [Example 786, (S)-6-(((1-(bicyclo[1.1.1]pentan-1-yl)-1H-1,2,3-triazol-4-yl)(1-methyl-2-oxo-1,2-dihydroquinolin-5-yl)methyl)amino)-8-chloro-4-(neopentylamino)quinoline-3-carbonitrile] |
| 0.003 µM | N#Cc1csc([C@H](Nc2cc(Cl)c3ncc(C#N)c(Nc4ccc(F)c(Cl)c4)c3c2)c2cn(CCO)nn2)c1 [Example 333, (R)-8-chloro-4-((3-chloro-4-fluorophenyl)amino)-6-(((4-cyanothiophen-2-yl)(1-(2-hydroxyethyl)-1H-1,2,3-triazol-4-yl)methyl)amino)quinoline-3-carbonitrile] |

same assay, conditions: read-out: IC50 HTRF; Cot HTRF (TR-FRET) biochemical assay

| IC50 | Structure (SMILES) |
| --- | --- |
| 0.005 µM | N#Cc1cnc2c(Cl)cc(N[C@@H](c3ccsc3)c3cn(C4CCNCC4)nn3)cc2c1Nc1ccc(F)c(Cl)c1 [Example 393, (S)-8-chloro-4-t-((3-chloro-4-fluoro-phenyl)amino)-6-(((1-(piperidin-4-yl)-1H-1,2,3-triazol-4-yl)(thiophen-3-yl)methyl)amino)quinoline-3-carbonitrile] |

tested on: TNFα; experiment: Cot Monocyte TNFα Cell Based Assay; settings: Homo sapiens, Monocyte, read-out: EC50 TNF, LPS-stimulated human monocytes, TNFα

| EC50 | Structure (SMILES) |
| --- | --- |
| 1 µM | Cc1ncoc1[C@H](Nc1cc(Cl)c2ncc(C#N)c(NCC(C)(C)C)c2c1)c1cn(C2(C(F)F)CC2)nn1 [Example 630, (R)-8-chloro-6-(((1-(1-(difluoromethyl)cyclopropyl)-1H-1,2,3-triazol-4-yl)(4-methyloxazol-5-yl)methyl)amino)-4-(neopentylamino)quinoline-3-carbonitrile] |
| 0.981 µM | CC(C)(C)CNc1c(C#N)cnc2c(C#N)cc(N[C@H](c3cn(C4CC4)nn3)c3cccc4c3CNC4=O)cc12 [Example 76, (S)-6-(((1-cyclopropyl-1H-1,2,3-triazol-4-yl)(1-oxoisoindolin-4-yl)methyl)amino)-4-(neopentylamino)quinoline-3,8-dicarbonitrile] |
| 0.299 µM | CC(C)(C)CNc1c(C#N)cnc2c(Br)cc(N[C@H](c3cn(C4(C(F)(F)F)CC4)nn3)c3cccc4ncsc34)cc12 [Example 439, (S)-6-((benzo[d]thiazol-7-yl(1-(1-(trifluoromethyl)cyclopropyl)-1H-1,2,3-triazol-4-yl)methyl)amino)-8-bromo-4-(neopentylamino)quinoline-3-carbonitrile] |

The next lines start with the compound.

| Structure (SMILES) | EC50 |
| --- | --- |
| CC(C)(C)CNc1c(C#N)cnc2c(Cl)cc(N[C@H](c3cn(C4(C(F)(F)F)CC4)nn3)c3ccc(Cl)c4cnccc34)cc12 [Example 651, (S)-8-chloro-6-(((8-chloroisoquinolin-5-yl)(1-(1-(trifluoromethyl)cyclopropyl)-1H-1,2,3-triazol-4-yl)methyl)amino)-4-(neopentylamino)quinoline-3-carbonitrile] | 0.135 µM |
| Cc1ncsc1[C@H](Nc1cc(Cl)c2ncc(C#N)c(Nc3ccc(Cl)c(Cl)c3F)c2c1)c1cn(C2COC2)nn1 [Example 217, (R)-8-chloro-4-((3,4-dichloro-2-fluorophenyl)amino)-6-(((4-methylthiazol-5-yl)(1-(oxetan-3-yl)-1H-1,2,3-triazol-4-yl)methyl)amino)quinoline-3-carbonitrile] | 0.264 µM |
| CC(C)n1cc([C@@H](Nc2cc(Cl)c3ncc(C#N)c(Nc4ccc(F)c(Cl)c4)c3c2)c2cocn2)nn1 [Example 312, (S)-8-chloro-4-((3-chloro-4-fluorophenyl)amino)-6-(((1-isopropyl-1H-1,2,3-triazol-4-yl)(oxazol-4-yl)methyl)amino)quinoline-3-carbonitrile] | 1.24 µM |
| Cc1ncsc1[C@H](Nc1cc(Cl)c2ncc(C#N)c(Nc3cnc(F)c(F)c3)c2c1)c1c[nH]nn1 [Example 170, (R)-8-chloro-4-((5,6-difluoropyridin-3-yl)amino)-6-(((4-methylthiazol-5-yl)(1H-1,2,3-triazol-4-yl)methyl)amino)quinoline-3-carbonitrile] | 1.26 µM |
| CC(C)(C)N1CCC(n2cc([C@@H](Nc3cc(Cl)c4ncc(C#N)c(Nc5ccc(F)c(Cl)c5)c4c3)c3cccc4c3CCN4)nn2)CC1 [Example 60, (S)-6-(((1-(1-(tert-butyl)piperidin-4-yl)-1H-1,2,3-triazol-4-yl)(indolin-4-yl)methyl)amino)-8-chloro-4-((3-chloro-4-fluorophenyl)amino)quinoline-3-carbonitrile] | 0.131 µM |

same assay, conditions: read-out: EC50 TNF; LPS-stimulated human monocytes, TNFα TR-FRET

| EC50 | Structure (SMILES) |
| --- | --- |
| 0.126 µM | Cc1nc(F)ccc1[C@H](Nc1cc(Cl)c2ncc(C#N)c(NCC(C)(C)C)c2c1)c1nnn2c1OCCC2 [Example 985, (S)-8-chloro-6-(((6,7-dihydro-5H-[1,2,3]triazolo[5,l-b][1,3]oxazin-3-yl)(6-fluoro-2-methylpyridin-3-yl)methyl)amino)-4-(neopentylamino)quinoline-3-carbonitrile] |
